#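 Cells were grown in 96-well plates and exposed to each compound for 48 hours at five concentrations; endpoints were interpolated linearly between bracketing concentrations, or set to the highest concentration if not reached. GI50 = concentration required for 50% inhibition of growth. TGI: concentration producing complete growth inhibition.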
# Legend:
# Experiment in all cases: NCI-60 cell line screen, 48 h
# OVCAR-8 ovarian = test system: OVCAR-8 ovarian
# HL-60(TB) leukemia = test system: HL-60(TB) leukemia
# MDA-MB-468 breast = test system: MDA-MB-468 breast
# UACC-62 melanoma = test system: UACC-62 melanoma
# MDA-MB-435 = test system: MDA-MB-435
# NCI-H226 lung = test system: NCI-H226 lung
# OVCAR-3 ovarian = test system: OVCAR-3 ovarian
# 786-0 renal = test system: 786-0 renal
# SF-268 CNS = test system: SF-268 CNS
# CCRF-CEM leukemia = test system: CCRF-CEM leukemia
# OVCAR-4 ovarian = test system: OVCAR-4 ovarian
# SK-MEL-28 melanoma = test system: SK-MEL-28 melanoma
# A498 renal = test system: A498 renal
# MCF7 breast = test system: MCF7 breast
# NCI-H23 lung = test system: NCI-H23 lung
# RXF 393 renal = test system: RXF 393 renal
# SF-539 CNS = test system: SF-539 CNS
# SNB-19 CNS = test system: SNB-19 CNS
# MOLT-4 leukemia = test system: MOLT-4 leukemia
# UACC-257 melanoma = test system: UACC-257 melanoma
# SK-OV-3 ovarian = test system: SK-OV-3 ovarian
# SNB-75 CNS = test system: SNB-75 CNS
# SK-MEL-5 melanoma = test system: SK-MEL-5 melanoma
# EKVX NSCLC = test system: EKVX NSCLC
# RPMI-8226 leukemia = test system: RPMI-8226 leukemia
# MDA-MB-231 breast = test system: MDA-MB-231 breast
# TK-10 renal = test system: TK-10 renal
# HCC-2998 colon = test system: HCC-2998 colon
# HS 578T breast = test system: HS 578T breast
# NCI/ADR-RES ovarian = test system: NCI/ADR-RES ovarian
compound,measurement,setting,value
C=CC[Se]C(=O)c1ccc(C(=O)[Se]CC=C)s1,TGI,OVCAR-8 ovarian,1.09 µM
same,GI50,HL-60(TB) leukemia,0.581 µM
same,TGI,HL-60(TB) leukemia,2.58 µM
same,GI50,MDA-MB-468 breast,0.657 µM
same,TGI,MDA-MB-468 breast,1.62 µM
same,GI50,UACC-62 melanoma,0.482 µM
same,TGI,UACC-62 melanoma,1.39 µM
same,GI50,MDA-MB-435,0.691 µM
same,TGI,MDA-MB-435,2.06 µM
same,GI50,NCI-H226 lung,0.794 µM
same,TGI,NCI-H226 lung,2.71 µM
same,GI50,OVCAR-3 ovarian,0.655 µM
same,TGI,OVCAR-3 ovarian,1.62 µM
same,GI50,786-0 renal,0.314 µM
same,TGI,786-0 renal,1.16 µM
same,GI50,SF-268 CNS,0.768 µM
same,TGI,SF-268 CNS,4.83 µM
same,GI50,CCRF-CEM leukemia,0.428 µM
same,TGI,CCRF-CEM leukemia,> 21.8 µM
same,GI50,OVCAR-4 ovarian,0.948 µM
same,TGI,OVCAR-4 ovarian,2.5 µM
same,GI50,SK-MEL-28 melanoma,0.666 µM
same,TGI,SK-MEL-28 melanoma,1.85 µM
same,GI50,A498 renal,2.82 µM
same,TGI,A498 renal,66.9 µM
same,GI50,MCF7 breast,0.565 µM
same,TGI,MCF7 breast,1.84 µM
same,GI50,NCI-H23 lung,0.313 µM
same,TGI,NCI-H23 lung,1.03 µM
same,GI50,RXF 393 renal,0.696 µM
same,TGI,RXF 393 renal,1.64 µM
same,GI50,SF-539 CNS,0.307 µM
same,TGI,SF-539 CNS,0.852 µM
same,GI50,SNB-19 CNS,0.289 µM
same,TGI,SNB-19 CNS,1.26 µM
same,GI50,MOLT-4 leukemia,0.992 µM
same,TGI,MOLT-4 leukemia,5.6 µM
same,GI50,UACC-257 melanoma,0.721 µM
same,TGI,UACC-257 melanoma,2.08 µM
same,GI50,SK-OV-3 ovarian,0.224 µM
same,TGI,SK-OV-3 ovarian,0.546 µM
same,GI50,SNB-75 CNS,0.215 µM
same,TGI,SNB-75 CNS,0.577 µM
same,GI50,SK-MEL-5 melanoma,1.49 µM
same,TGI,SK-MEL-5 melanoma,3.35 µM
same,GI50,EKVX NSCLC,0.623 µM
same,TGI,EKVX NSCLC,1.63 µM
same,GI50,RPMI-8226 leukemia,0.375 µM
same,TGI,RPMI-8226 leukemia,2.43 µM
same,GI50,MDA-MB-231 breast,0.676 µM
same,TGI,MDA-MB-231 breast,6.41 µM
same,GI50,TK-10 renal,1.05 µM
same,TGI,TK-10 renal,7.56 µM
same,GI50,HCC-2998 colon,0.313 µM
same,TGI,HCC-2998 colon,1 µM
same,GI50,HS 578T breast,0.294 µM
same,TGI,HS 578T breast,1.89 µM
same,GI50,NCI/ADR-RES ovarian,0.261 µM
same,TGI,NCI/ADR-RES ovarian,0.661 µM
